Data published in EPA's ToxValDB 9.5 (doi:10.2903/j.efsa.2019.5732).

Experiments:
Pontoscolex corethrurus = conditions: chronic/long-term; growth
Folsomia candida = conditions: chronic/long-term; mortality
Oryctolagus sp. = conditions: developmental; development
Canidae = conditions: chronic; duration: 1 years; oral; Dog Other; organ weight
Daphnia magna = conditions: chronic/long-term; duration: 21 days; reproduction
Mus musculus = conditions: chronic; duration: 18 months; mortality
Apis mellifera = conditions: acute, mortality
Bibionidae = conditions: chronic/long-term; duration: 28 days; seedling emergence

CC(COc1ccc(Oc2ccccc2)cc1)Oc1ccccn1 (centres undefined) [Pyriproxyfen]
NOEC (Pontoscolex corethrurus): 50 mg/kg
NOEC (Folsomia candida): 12.5 mg/kg
LD50 (Rattus norvegicus; acute, oral, mortality): > 5000 mg/kg-day
NOAEL (Rattus norvegicus; reproduction developmental, organ weight): 13.3 mg/kg-day
NOAEL (Oryctolagus sp.): 100 mg/kg-day
NOAEL (Canidae): 10 mg/kg-day
NOEC (Daphnia magna): 0.015 µg/L
LOAEL (Mus musculus): 16.4 mg/kg-day
LD50 (Anas platyrhynchos; acute, oral, unspecified, mortality): > 1910 mg/kg-day
NOEC (Anas platyrhynchos; chronic/long-term): 70.2 mg/kg-day
LC50 (Anas platyrhynchos; short-term, oral, feed, mortality): > 1260 mg/kg-day
LD50 (Apis mellifera; dermal): > 100 µg/piece
LD50 (Apis mellifera; oral, unspecified): 74 µg/piece
NOEC (Bibionidae): 3.1 µg/L
